Tests used:
Candida albicans = assay: Antifungal activity against Candidia albicans ATCC 10231 assessed as inhibition of fungal growth by broth microdilution method; type: functional
Enterococcus faecalis [1] = assay: Antibacterial activity against Enterococcus faecalis ATCC 29212 assessed as inhibition of bacterial growth by broth microdilution method; type: functional
Staphylococcus aureus [2] = assay: Antibacterial activity against Staphylococcus aureus ATCC 25923 assessed as inhibition of bacterial growth by broth microdilution method; type: functional
Pseudomonas aeruginosa = assay: Antibacterial activity against Pseudomonas aeruginosa ATCC 27853 assessed as inhibition of bacterial growth by broth microdilution method; type: functional
Trichophyton rubrum = assay: Antifungal activity against Trichophyton rubrum FF5 assessed as inhibition of fungal growth by broth microdilution method; type: functional
Salmonella typhimurium = assay: Antibacterial activity against Salmonella enterica serovar typhimurium SL1344 (SE03) assessed as inhibition of bacterial growth by broth microdilution method; type: functional, Salmonella enterica subsp. enterica serovar Typhimurium
Escherichia coli [3] = assay: Antibacterial activity against Escherichia coli ATCC 25922 assessed as inhibition of bacterial growth by broth microdilution method; type: functional
Aspergillus fumigatus = assay: Antifungal activity against Aspergillus fumigatus ATCC 204305 assessed as inhibition of fungal growth by broth microdilution method; type: functional
Escherichia coli [4] = assay: Antimicrobial adjuvant activity against ESBL-producing Escherichia coli SA/2 assessed as potentiation of cefotaxime-induced antibacterial activity by measuring fold reduction in cefotaxime MIC at 64 ug/ml by broth microdilution method; type: functional; conditions: dose 64 µg/ml
[5] = Inhibition of Multidrug resistance efflux pump in Staphylococcus aureus 272123 assessed as relative fluorescence index using ethidium bromide as substrate at 50 uM by fluorescence based analysis
[6] = test system: Salmonella enterica subsp. enterica serovar Typhimurium; assay: Inhibition of Multidrug resistance efflux pump in Salmonella enterica serovar typhimurium SL1344 (SE03) assessed as relative fluorescence index using ethidium bromide as substrate at 50 uM by fluorescence based analysis
Staphylococcus aureus [7] = assay: Antibacterial activity against methicillin and ofloxacin-resistant Staphylococcus aureus 272123 assessed as inhibition of bacterial growth by broth microdilution method; type: functional
Enterococcus faecalis [8] = assay: Antimicrobial adjuvant activity against Enterococcus faecalis B3/101 assessed as potentiation of vancomycin-induced antibacterial activity by measuring fold reduction in vancomycin MIC at 64 ug/ml by broth microdilution method; type: functional; conditions: dose 64 µg/ml
[9] = Inhibition of quorum sensing system in Chromobacterium violaceum wild type 85 assessed as reduction in pigment production incubated for 24 to 48 hrs; conditions: time 24-48 hrs
Serratia marcescens = assay: Inhibition of quorum sensing system in Serratia marcescens AS-1 assessed as reduction in pigment production incubated for 24 to 48 hrs; conditions: time 24-48 hrs
[10] = Inhibition of quorum sensing system in Chromobacterium violaceum CV026 assessed as reduction in pigment production co-cultured with Sphingomonas paucimobilis Ezf 10-17 for 24 to 48 hrs; conditions: time 24-48 hrs

## COc1ccc(/C=C2\COC/C(=C\c3ccc(OC)cc3OC)C2=O)c(OC)c1
Candida albicans
  MIC: > 128 µg/mL
Enterococcus faecalis [1]
  MIC: > 64 µg/mL
Staphylococcus aureus [2]
  MIC: > 64 µg/mL
Pseudomonas aeruginosa
  MIC: > 64 µg/mL
Trichophyton rubrum
  MIC: > 128 µg/mL
Salmonella typhimurium
  MIC: > 64 µg/mL
Escherichia coli [3]
  MIC: > 64 µg/mL
Aspergillus fumigatus
  MIC: > 128 µg/mL
Escherichia coli [4]
  fold change (FC): 8
[5]
  RFU: -0.19
[6]
  RFU: -0.15
Staphylococcus aureus [7]
  MIC: > 64 µg/mL

## Cc1ccc(/C=C2\COC/C(=C\c3ccc(C)cc3)C2=O)cc1
Candida albicans
  MIC: > 128 µg/mL
Enterococcus faecalis [1]
  MIC: > 64 µg/mL
Staphylococcus aureus [2]
  MIC: > 64 µg/mL
Pseudomonas aeruginosa
  MIC: > 64 µg/mL
Trichophyton rubrum
  MIC: > 128 µg/mL
Salmonella typhimurium
  MIC: > 64 µg/mL
Escherichia coli [3]
  MIC: > 64 µg/mL
Aspergillus fumigatus
  MIC: > 128 µg/mL
Escherichia coli [4]
  fold change (FC): 2
[5]
  RFU: -0.24
[6]
  RFU: -0.21
Enterococcus faecalis [8]
  fold change (FC): 2
Staphylococcus aureus [7]
  MIC: > 64 µg/mL

## O=C1/C(=C/c2ccccc2Br)COC/C1=C\c1ccccc1Br
Candida albicans
  MIC: > 128 µg/mL
Enterococcus faecalis [1]
  MIC: > 64 µg/mL
Staphylococcus aureus [2]
  MIC: > 64 µg/mL
Pseudomonas aeruginosa
  MIC: > 64 µg/mL
Trichophyton rubrum
  MIC: > 128 µg/mL
Salmonella typhimurium
  MIC: > 64 µg/mL
Escherichia coli [3]
  MIC: > 64 µg/mL
Aspergillus fumigatus
  MIC: > 128 µg/mL
[5]
  RFU: -0.05
[6]
  RFU: -0.02
Enterococcus faecalis [8]
  fold change (FC): 2
Staphylococcus aureus [7]
  MIC: > 64 µg/mL

## O=C1/C(=C/c2cccc(F)c2)COC/C1=C\c1cccc(F)c1
Candida albicans
  MIC: > 128 µg/mL
Enterococcus faecalis [1]
  MIC: > 64 µg/mL
Staphylococcus aureus [2]
  MIC: > 64 µg/mL
Pseudomonas aeruginosa
  MIC: > 64 µg/mL
Trichophyton rubrum
  MIC: > 128 µg/mL
Salmonella typhimurium
  MIC: > 64 µg/mL
Escherichia coli [3]
  MIC: > 64 µg/mL
Aspergillus fumigatus
  MIC: > 128 µg/mL
[5]
  RFU: -0.16
[6]
  RFU: 0.04
Enterococcus faecalis [8]
  fold change (FC): 2
Staphylococcus aureus [7]
  MIC: > 64 µg/mL

## O=C1/C(=C/c2ccc(C(F)(F)F)cc2)COC/C1=C\c1ccc(C(F)(F)F)cc1
Candida albicans
  MIC: > 128 µg/mL
Enterococcus faecalis [1]
  MIC: > 64 µg/mL
Staphylococcus aureus [2]
  MIC: > 64 µg/mL
Pseudomonas aeruginosa
  MIC: > 64 µg/mL
Trichophyton rubrum
  MIC: > 128 µg/mL
Salmonella typhimurium
  MIC: > 64 µg/mL
Escherichia coli [3]
  MIC: > 64 µg/mL
Aspergillus fumigatus
  MIC: > 128 µg/mL
Escherichia coli [4]
  fold change (FC): 2
[5]
  RFU: -0.12
[6]
  RFU: -0.24
Staphylococcus aureus [7]
  MIC: > 64 µg/mL

## Cc1cccc(/C=C2\COC/C(=C\c3cccc(C)c3)C2=O)c1
Candida albicans
  MIC: > 128 µg/mL
Enterococcus faecalis [1]
  MIC: > 64 µg/mL
Staphylococcus aureus [2]
  MIC: > 64 µg/mL
Pseudomonas aeruginosa
  MIC: > 64 µg/mL
Trichophyton rubrum
  MIC: > 128 µg/mL
Salmonella typhimurium
  MIC: > 64 µg/mL
Escherichia coli [3]
  MIC: > 64 µg/mL
Aspergillus fumigatus
  MIC: > 128 µg/mL
Escherichia coli [4]
  fold change (FC): 2
[5]
  RFU: 0.11
[6]
  RFU: -0.12
Enterococcus faecalis [8]
  fold change (FC): 2
Staphylococcus aureus [7]
  MIC: > 64 µg/mL

## Cc1ccccc1/C=C1\COC/C(=C\c2ccccc2C)C1=O
Candida albicans
  MIC: > 128 µg/mL
Enterococcus faecalis [1]
  MIC: > 64 µg/mL
Staphylococcus aureus [2]
  MIC: > 64 µg/mL
Pseudomonas aeruginosa
  MIC: > 64 µg/mL
Trichophyton rubrum
  MIC: > 128 µg/mL
Salmonella typhimurium
  MIC: > 64 µg/mL
Escherichia coli [3]
  MIC: > 64 µg/mL
Aspergillus fumigatus
  MIC: > 128 µg/mL
[5]
  RFU: -0.23
[6]
  RFU: -0.08
Enterococcus faecalis [8]
  fold change (FC): 2
Staphylococcus aureus [7]
  MIC: > 64 µg/mL

## CC(CN1c2ccccc2Sc2ccccc21)N(C)C (stereo not drawn)
[9]
  Activity: 40 mm
Serratia marcescens
  Activity: 18 mm
[10]
  Activity: 41 mm

## COc1ccccc1/C=C1\Cc2ccccc2C1=O
Candida albicans
  MIC: > 128 µg/mL
Enterococcus faecalis [1]
  MIC: > 64 µg/mL
Staphylococcus aureus [2]
  MIC: > 64 µg/mL
Pseudomonas aeruginosa
  MIC: > 64 µg/mL
Trichophyton rubrum
  MIC: > 128 µg/mL
Salmonella typhimurium
  MIC: > 64 µg/mL
Escherichia coli [3]
  MIC: > 64 µg/mL
Aspergillus fumigatus
  MIC: > 128 µg/mL
[5]
  RFU: 0.05
[6]
  RFU: 0.25
Enterococcus faecalis [8]
  fold change (FC): 2
Staphylococcus aureus [7]
  MIC: > 64 µg/mL

## O=C1/C(=C/c2ccc(F)cc2)COC/C1=C\c1ccc(F)cc1
Candida albicans
  MIC: > 128 µg/mL
Enterococcus faecalis [1]
  MIC: > 64 µg/mL
Staphylococcus aureus [2]
  MIC: > 64 µg/mL
Pseudomonas aeruginosa
  MIC: > 64 µg/mL
Trichophyton rubrum
  MIC: > 128 µg/mL
Salmonella typhimurium
  MIC: > 64 µg/mL
Escherichia coli [3]
  MIC: > 64 µg/mL
Aspergillus fumigatus
  MIC: > 128 µg/mL
Escherichia coli [4]
  fold change (FC): 8
[5]
  RFU: -0.11
[6]
  RFU: 0.17
Staphylococcus aureus [7]
  MIC: > 64 µg/mL

— ChEMBL document CHEMBL5143672, “New diarylpentanoids and chalcones as potential antimicrobial adjuvants” (2022)
